From article PMC12248599, “Exploring the Bioavailability of Red Grape Skin Extract Polyphenols: A Caco-2 Cell Model Study” (Foods, 2025)
Where “and” joins values, the source holds several entries; their conditions need not be identical. Equal entries are not always repeated. Entries after “also recorded” stand apart in the source; their conditions may differ. Marks after values point to notes of the source that are not given here.

Test system: Caco-2 cell monolayer
Experiment: Caco-2 monolayer transport (bioavailability) study, AB and BA directions
Format: in vitro ADME, Homo sapiens
Settings: for detection at the acceptor side of the Caco-2 cell monolayer: AB and BA experiments; for TE (%) transport efficiency: after 180 min; for reduction in concentration on the basolateral (donor) side / reduction in concentration on the apical (donor) side: 0 to 180 min
Procedure: A reversed phase C18 column (Luna 5 μm C18(2) 100 Å, LC Column 250 × 4.6 mm, Phenomenex) was used to separate the polyphenols at a flow rate of 0.7 mL/min with an injection volume of 60 µL. The detection was carried out at 520 nm for anthocyanins (M3G, D3G and Pet3G), at 328 nm for CA, at 356 nm for flavonols (Q3G, K3Gal and K3G) and at 280 nm for GA and SA. The mobile phases were (A) acetonitrile 100% and (B) water 0.1% trifluoroacetic acid (v/v). The gradient was programmed as follows: 10% A 0 min, 10–80% A (0–20 min), 80–100% A (20–25 min), 100% A (25–30 min); 10% A (30–35 min) and 10% A (35–40 min). Every polyphenol was quantified using the corresponding reference standard calibration curve. Each of the quantified phenolic compound concentration was expressed as mg/mL
For the transport experiment Caco-2 cells were cultured at a density of 4 × 10^4 cells/cm^2 in Transwell inserts (12 mm i.d., 1.12 cm^2 growth area, 0.4 µm mean pore size polycarbonate membranes, Corning Inc., Milwaukee, WI, USA) placed in 12-well plates. Caco-2 cells were grown in DMEM in an incubator at 37 °C in a humidified atmosphere containing 5% CO2.
Bioavailability studies were performed in triplicate after 21 days of cell growth. Only inserts with stable TEER values higher than ≥300 Ω cm^2 were considered acceptable to perform the bioavailability study. For that purpose, DMEM media was removed, the monolayer was washed with PBS and HBSS was supplied to the cells.
Likewise, the GSE stock solution was diluted in HBSS medium to prepare GSE solutions S1 and S2. GSE solutions S1 and S2 had concentrations of 15 mg/mL and 22 mg/mL, respectively. These concentrations were established considering previous studies with grape pomace extracts that concluded that intestinal concentrations of 1–2% (w/v) show potential bioactivities and are safe to be used as a food ingredient.
The apical side represents the intestinal lumen and the basolateral side represents the bloodstream. Each sample (100 µL) was immediately acidified with 1M HCl to a final concentration of 0.007 M and subsequently frozen at −20 °C until analysis by HPLC (according to the method described in Section 2.5). Each experiment was carried out on 3 individual wells. The transport efficiency (TE) percentage was calculated according to Equation (2):Transport efficiency (%) = (C/C0) × 100(2) where, C is the polyphenol concentration at the acceptor side over time and C0 is the initial concentration at the donor side. TE values were calculated for the nine polyphenols identified in the grape skin extract.
The apparent permeability coefficient (Papp) of the polyphenols in GSE was calculated for apical to basolateral side (AB) and basolateral to apical side (BA) flux studies according to Equation (3):Papp (cm/s) = (dQ/dt) × (VR/AC0)(3) where, dQ/dt is the permeability rate which means the steady-state linear rate of change of concentration (mg/L) per second (s) at the acceptor side; A is the surface area of the cell monolayer (1.12 cm^2). C0 is the initial concentration at the donor side (mg/L) at t = 0 s and VR is the volume of the solution of the acceptor side (mL).
The efflux ratio (ER) of the polyphenol was assessed by calculating the Equation (4):ER = Papp (BA)/Papp (AB)(4) where, Papp (BA) is the apparent permeability coefficient of the polyphenol from basolateral to apical side and Papp (AB) is the apparent permeability coefficient from apical to basolateral side. ER is a measure of the relative contributions of active and passive transport to bi-direction flux across the cell monolayer.

[1] = AB experiment, donor side, S1 (15 mg/mL GSE)
[2] = AB experiment, donor side, S2 (22 mg/mL GSE)
[3] = BA experiment, donor side, S1 (15 mg/mL GSE)
[4] = BA experiment, donor side, S2 (22 mg/mL GSE)
[5] = BA experiment, S1 (15 mg/mL GSE)
[6] = BA experiment, S2 (22 mg/mL GSE)
[7] = BA experiment, acceptor side, S1 (15 mg/mL GSE)
[8] = BA experiment, acceptor side, S2 (22 mg/mL GSE)

SMILES	Apical Side 0 min [1]	Apical Side 75 min [1]	Apical Side 90 min [1]	Apical Side 115 min [1]	Apical Side 180 min [1]	Apical Side 0 min [2]	Apical Side 75 min [2]	Apical Side 90 min [2]	Apical Side 115 min [2]	Apical Side 180 min [2]	Basolateral Side 0 min [3]	Basolateral Side 75 min [3]	Basolateral Side 90 min [3]	Basolateral Side 115 min [3]	Basolateral Side 180 min [3]	Basolateral Side 0 min [4]	Basolateral Side 75 min [4]	Basolateral Side 90 min [4]	Basolateral Side 115 min [4]	Basolateral Side 180 min [4]	other results
OC[C@H]1O[C@@H](Oc2cc3c(O)cc(O)cc3[o+]c2-c2cc(O)c(O)c(O)c2)[C@H](O)[C@@H](O)[C@@H]1O [D3G, delphinidin-3-O-glucoside]	2.1 ± 0.2 ^a mg/L	1.9 ± 0.2 ^a,b mg/L	1.8 ± 0.1 ^b,c mg/L	1.6 ± 0.1 ^c mg/L	1.5 ± 0.1 ^c mg/L	4.7 ± 0.1 ^a mg/L	4.4 ± 0.1 ^b mg/L	4.3 ± 0.1 ^c mg/L	4.05 ± 0.09 ^c mg/L	3.94 ± 0.08 ^c mg/L	2.7 ± 0.2 ^a mg/L	2.6 ± 0.2 ^a,b mg/L	2.5 ± 0.2 ^b,c mg/L	2.4 ± 0.2 ^b,c mg/L	2.3 ± 0.2 ^c mg/L	3.6 ± 0.2 ^a mg/L	3.5 ± 0.2 ^a mg/L	3.4 ± 0.2 ^a mg/L	3.4 ± 0.2 ^d mg/L	3.4 ± 0.2 ^a mg/L	detection at the acceptor side of the Caco-2 cell monolayer: not detected
O=c1c(O[C@@H]2O[C@H](CO)[C@@H](O)[C@H](O)[C@H]2O)c(-c2ccc(O)c(O)c2)oc2cc(O)cc(O)c12 [Q3G, quercetin-3-glucoside]	0.23 ± 0.01 ^a mg/L	0.18 ± 0.01 ^b mg/L	0.14 ± 0.01 ^c mg/L	0.10 ± 0.00 ^d mg/L	0.08 ± 0.00 ^c mg/L	0.61 ± 0.01 ^a mg/L	0.52 ± 0.01 ^b mg/L	0.47 ± 0.01 ^c mg/L	0.41 ± 0.01 ^d mg/L	0.37 ± 0.01 ^c mg/L	0.28 ± 0.02 ^a mg/L	0.24 ± 0.02 ^b mg/L	0.21 ± 0.02 ^c mg/L	0.18 ± 0.01 ^d mg/L	0.15 ± 0.01 ^c mg/L	0.41 ± 0.03 ^a mg/L	0.38 ± 0.03 ^a,b mg/L	0.36 ± 0.03 ^a,b,c mg/L	0.34 ± 0.03 ^b,c mg/L	0.32 ± 0.03 ^c mg/L	detection at the acceptor side (AB experiments, basolateral side): not detected; TE (%) transport efficiency [5]: 4.1 ± 0.1%; TE (%) transport efficiency [6]: 3.6 ± 0.1%; Apical Side 75 min [7]: 0.009 ± 0.001 ^b mg/L; Apical Side 90 min [7]: 0.010 ± 0.001 ^b,c mg/L; Apical Side 115 min [7]: 0.011 ± 0.001 ^c mg/L; Apical Side 180 min [7]: 0.011 ± 0.001 ^c mg/L; Apical Side 75 min [8]: 0.013 ± 0.001 ^b mg/L; Apical Side 90 min [8]: 0.013 ± 0.001 ^b,c mg/L; Apical Side 115 min [8]: 0.014 ± 0.001 ^c,d mg/L; Apical Side 180 min [8]: 0.015 ± 0.001 ^d mg/L; detection at the acceptor side (BA experiments, apical side): detected; also recorded: quantified
O=c1c(OC2O[C@H](CO)[C@H](O)[C@H](O)[C@H]2O)c(-c2ccc(O)cc2)oc2cc(O)cc(O)c12 (stereo partly shown) [K3Gal, kaempferol-3-galactoside]	0.63 ± 0.02 ^a mg/L	0.52 ± 0.02 ^b mg/L	0.45 ± 0.02 ^c mg/L	0.39 ± 0.01 ^d mg/L	0.35 ± 0.01 ^c mg/L	1.23 ± 0.02 ^a mg/L	1.09 ± 0.02 ^b mg/L	1.01 ± 0.02 ^c mg/L	0.88 ± 0.02 ^d mg/L	0.79 ± 0.02 ^c mg/L	0.26 ± 0.01 mg/L and 0.26 ± 0.01 ^a mg/L	0.19 ± 0.01 ^b mg/L	0.13 ± 0.01 ^c mg/L	0.08 ± 0.01 ^d mg/L	0.05 ± 0.01 mg/L and 0.05 ± 0.01 ^c mg/L	0.79 ± 0.02 ^a mg/L	0.75 ± 0.02 ^b mg/L	0.71 ± 0.02 ^c mg/L	0.67 ± 0.02 ^d mg/L	0.64 ± 0.01 ^c mg/L	detection at the acceptor side of the Caco-2 cell monolayer: not detected; reduction in concentration on the basolateral (donor) side [5]: 81 ± 2%
COc1cc(C(=O)O)cc(OC)c1O [SA, syringic acid]	0.70 ± 0.03 mg/L and 0.70 ± 0.03 ^a mg/L	0.54 ± 0.03 ^b mg/L	0.42 ± 0.03 ^c mg/L	0.32 ± 0.03 ^d mg/L	0.23 ± 0.03 mg/L and 0.23 ± 0.03 ^c mg/L	1.48 ± 0.06 mg/L and 1.48 ± 0.06 ^a mg/L	1.21 ± 0.04 ^b mg/L	1.03 ± 0.03 ^c mg/L	0.82 ± 0.02 ^d mg/L	0.67 ± 0.03 mg/L and 0.67 ± 0.03 ^c mg/L	0.84 ± 0.08 ^a mg/L	0.72 ± 0.07 ^a,b mg/L	0.63 ± 0.07 ^b,c mg/L	0.53 ± 0.06 ^c,d mg/L	0.44 ± 0.06 ^d mg/L	1.1 ± 0.1 ^a mg/L	1.10 ± 0.09 ^a,b mg/L	1.03 ± 0.09 ^a,b,c mg/L	0.96 ± 0.08 ^b,c mg/L	0.90 ± 0.08 mg/L and 0.901 ± 0.08 ^c mg/L	detection at the acceptor side of the Caco-2 cell monolayer: not detected; reduction in concentration on the apical (donor) side (AB experiment, S1 (15 mg/mL GSE)): 67 ± 4%; reduction in concentration on the apical (donor) side (AB experiment, S2 (22 mg/mL GSE)): 55 ± 2%; reduction in concentration on the basolateral (donor) side [6]: 23 ± 1%; detection at the acceptor side (BA experiments, apical side): detected
